Measurements as given in ChEMBL document CHEMBL1649239, “Cotransfer of antibiotic resistance genes and a hylEfm-containing virulence plasmid in Enterococcus faecium” (2009).
Values after ≈ are worked out from the molar mass of the structure shown.

Columns and labels:
Format in all cases: functional
Enterococcus faecium [1] = experiment: Antimicrobial activity against erythromycin-, streptomycin-resistant Enterococcus faecium A expressing hylEfm gene by agar dilution method
Enterococcus faecium [2] = experiment: Antimicrobial activity against fusidic acid-, rifampin-resistant Enterococcus faecium TX1330RF by agar dilution method
Enterococcus faecium [3] = experiment: Antimicrobial activity against erythromycin-, streptomycin-resistant Enterococcus faecium TX1330RF-A1 conjugant expressing hylEfm gene by agar dilution method
Enterococcus faecium [4] = experiment: Antimicrobial activity against vancomycin-, gentamicin-resistant Enterococcus faecium B expressing hylEfm gene by agar dilution method
Enterococcus faecium [5] = experiment: Antimicrobial activity against erythromycin-, streptomycin-, vancomycin-, gentamicin-resistant Enterococcus faecium TX1330RF-B1 conjugant expressing hylEfm gene by agar dilution method
Enterococcus faecium [6] = experiment: Antimicrobial activity against vancomycin-, gentamicin-resistant Enterococcus faecium TX1330RF-B2 conjugant expressing hylEfm gene by agar dilution method
Enterococcus faecium [7] = experiment: Antimicrobial activity against vancomycin-resistant Enterococcus faecium C expressing hylEfm gene by agar dilution method
Enterococcus faecium [8] = experiment: Antimicrobial activity against pbp5 gene-deficient fusidic acid-, rifampin-resistant Enterococcus faecium D344SRF expressing hylEfm gene by agar dilution method
Enterococcus faecium [9] = experiment: Antimicrobial activity against pbp5 gene-deficient vancomycin-, fusidic acid-, rifampin-resistant Enterococcus faecium D344SRF-C6 expressing hylEfm gene by agar dilution method

SMILES | MIC (Enterococcus faecium [1]) | MIC (Enterococcus faecium [2]) | MIC (Enterococcus faecium [3]) | MIC (Enterococcus faecium [4]) | MIC (Enterococcus faecium [5]) | MIC (Enterococcus faecium [6]) | MIC (Enterococcus faecium [7]) | MIC (Enterococcus faecium [8]) | MIC (Enterococcus faecium [9])
CC1(C)S[C@@H]2[C@H](NC(=O)[C@H](N)c3ccccc3)C(=O)N2[C@H]1C(=O)O [AMPICILLIN] | 4 µg/mL (≈ 11.4 µM) | 1 µg/mL (≈ 2.86 µM) | 1 µg/mL (≈ 2.86 µM) | 256 µg/mL (≈ 733 µM) | 1 µg/mL (≈ 2.86 µM) | 1 µg/mL (≈ 2.86 µM) | 128 µg/mL (≈ 366 µM) | < 0.25 µg/mL | < 0.25 µg/mL
CC[C@H]1OC(=O)[C@H](C)[C@@H](O[C@H]2C[C@@](C)(OC)[C@@H](O)[C@H](C)O2)[C@H](C)[C@@H](O[C@@H]2O[C@H](C)C[C@H](N(C)C)[C@H]2O)[C@](C)(O)C[C@@H](C)C(=O)[C@H](C)[C@@H](O)[C@]1(C)O [ERYTHROMYCIN] | > 512 µg/mL | 0.5 µg/mL (≈ 0.681 µM) | > 512 µg/mL | > 512 µg/mL | > 512 µg/mL | 0.25 µg/mL (≈ 0.341 µM) | > 512 µg/mL | 512 µg/mL (≈ 698 µM) | > 512 µg/mL
CN[C@H](CC(C)C)C(=O)N[C@H]1C(=O)N[C@@H](CC(N)=O)C(=O)N[C@H]2C(=O)N[C@H]3C(=O)N[C@H](C(=O)N[C@H](C(=O)O)c4cc(O)cc(O)c4-c4cc3ccc4O)[C@H](O)c3ccc(c(Cl)c3)Oc3cc2cc(c3O[C@@H]2O[C@H](CO)[C@@H](O)[C@H](O)[C@H]2O[C@H]2C[C@](C)(N)[C@H](O)[C@H](C)O2)Oc2ccc(cc2Cl)[C@H]1O [VANCOMYCIN] |  |  |  | 512 µg/mL (≈ 353 µM) |  | 256 µg/mL (≈ 177 µM) | 256 µg/mL (≈ 177 µM) |  | 
